Test results reported in patent publication US4745124A, “Orally effective anti-hypertensive agents” (priority 1983, dated 1988).

How the values were obtained:
[1] = system: serum ACE; test: oral effectiveness: intrinsic serum ACE activity in rats; type: in vivo, female Sprague-Dawley rat; details: oral 1 mg/kg
Experimental: B. In certain experiments, as identified, an alternative assay system was employed using [^3 H]-HipGlyGly as substrate as described by Ryan, J. W., et al., Biochem. J. 167 501 (1977).
Female Sprague-Dawley rats, approximately 250 g weight, were fasted overnight and then administered either 0.5 ml of saline, via stomach tube, or 0.5 ml saline containing compound (I) at a dose of 1 mg per kg of body weight. At timed intervals the rats were beheaded using a guillotine and 3 ml-5 ml blood was collected. The sera were assayed for intrinsic ACE activity, using the assay of Example 216B.

[2] = system: serum ACE; test: oral effectiveness: intrinsic serum ACE activity in unanesthetized rabbits; type: in vivo; details: oral 1 mg, about 1 kg rabbit
Experimental: A. ACE activity assay. For most experiments described herein, the enzyme ACE was assayed in 0.05M Hepes buffer, pH 8.0 containing 0.1M NaCl and 0.75M Na2 SO4. The substrate employed was Benzoyl-GlyHisLeu at a final concentration of 1×10^-4 M, together with about 130,000 cpm of [^3 H]-Benzoyl GlyHisLeu (25 Ci/mmole). Enzyme was diluted in the above buffer such that 40 μl buffered enzyme was capable of hydrolyzing 13% of substrate in a 15-minute incubation at 37° C. To initiate the assay, 40 μl of enzyme and 10 μl of water or inhibitor dissooved in water were preincubated for five minutes at 37° C. Substrate, 50 μl, was then added to initiate reaction and the solution was incubated for 15 minutes at 37° C. To terminate the reaction, 1 ml of 0.1M HCl was added, following which 1 ml of ethyl acetate was added. The mixture was agitated on a rotary mixer and centrifuged briefly to separate the phases.
Young, unanesthetized rabbits, fasted overnight, weighing about 1 kg, were given compound (I). The compound was dissolved in water at alkaline pH, 1 mg of (I) in 3 ml water containing 50 μl 1N NaHCO3. Blood samples, 0.5 ml, were collected at timed intervals from a marginal ear vein. Sera obtained after clot formation and centrifugation were assayed for intrinsic ACE activity, using 1 μl in the assay of Example 216A.

[3] = system: pressor effects of angiotensin II; test: oral: blood pressure response to angiotensin II in anesthetized rats; type: in vivo, rat; details: 2 or 5 mg/kg, angiotensin II 80 ng
Experimental: Rats (210-290 g body weight) were fasted overnight and then anesthetized with intraperitoneal pentobarbital, 50-60 mg/kg. Tracheostomy was performed and the animals were ventilated mechanically. A cannula was inserted into a femoral vein for injection of angiotensin I or II, and a second cannula was inserted into a common carotid artery for direct measurement of arterial blood pressure. Heparin, 1,000 units, was injected via the femoral vein to prevent coagulation. Blood pressure was measured with a pressure transducer connected to a polygraph. The rats were injected with 80 ng of angiotensin I or angiotensin II in 20 μl of 0.9 g % NaCl; an amount of antiotensin I or II sufficient to raise mean arterial blood pressure by 27-40 mm Hg. After the responsiveness of a given rat to angiotensins I and II was established, compound (I), at 2 or 5 mg/kg (drug dissolved in 0.5 ml of H2 O plus 10 μl of 1N NaHCO3), was given via a stomach tube. At timed intervals, the effects of 80 ng of angiotensin I or angiotensin II on mean arterial blood pressure were tested.
Rats were prepared as described in Example 222. Compound (II) [N-benzoyl-L-phenylalanylthiopropanoyl)-L-proline] was given orally, via a stomach tube, at a dose of 12 mg/kg or 20 mg/kg. Compound (II) was dissolved in 0.5 ml of H2 O plus 10 μl of 1N NaHCO3. […]

C[C@H](CSC(=O)C(Cc1ccccc1)NC(=O)c1ccccc1)C(=O)N1CCC[C@H]1C(=O)O (stereo partly drawn) [Compound (I), 2-benzoylphenylalanylthio-2-D-methylpropanoyl-L-proline]
Serum ACE activity ([1]; 5 min, run 1): 100% of Control
Serum ACE activity ([1]; 5 min, run 2): 100% of Control
Serum ACE activity ([1]; 10 min, run 1): 65% of Control
Serum ACE activity ([1]; 10 min, run 2): 52% of Control
Serum ACE activity ([1]; 30 min, run 1): 50% of Control
Serum ACE activity ([1]; 30 min, run 2): 45% of Control
Serum ACE activity ([1]; 60 min, run 1): 50% of Control
Serum ACE activity ([1]; 60 min, run 2): 42% of Control
Serum ACE activity ([1]; 90 min, run 1): 20% of Control
Serum ACE activity ([1]; 90 min, run 2): 20% of Control
Serum ACE activity ([2]; 0.167 h, Rabbit 1): 7% of Control
Serum ACE activity ([2]; 0.167 h, Rabbit 2): 11% of Control
Serum ACE activity ([2]; 0.33 h, Rabbit 1): 8% of Control
Serum ACE activity ([2]; 0.33 h, Rabbit 2): 9% of Control
Serum ACE activity ([2]; 0.5 h, Rabbit 1): 7% of Control
Serum ACE activity ([2]; 0.5 h, Rabbit 2): 8% of Control
Serum ACE activity ([2]; 1.0 h, Rabbit 1): 20% of Control
Serum ACE activity ([2]; 1.0 h, Rabbit 2): 44% of Control
Serum ACE activity ([2]; 1.5 h, Rabbit 1): 14% of Control
Serum ACE activity ([2]; 1.5 h, Rabbit 2): 55% of Control
Serum ACE activity ([2]; 2.0 h, Rabbit 1): 11% of Control
Serum ACE activity ([2]; 2.0 h, Rabbit 2): 44% of Control
Serum ACE activity ([2]; 2.5 h, Rabbit 1): 12% of Control
Serum ACE activity ([2]; 2.5 h, Rabbit 2): 40% of Control
Serum ACE activity ([2]; 3.0 h, Rabbit 1): 30% of Control
Serum ACE activity ([2]; 4.0 h, Rabbit 1): 23% of Control
Serum ACE activity ([2]; 5.0 h, Rabbit 1): 19% of Control
Serum ACE activity ([2]; 20.0 h, Rabbit 1): 70% of Control
effects of angiotensin II (specificity) [3]: not inhibited
